Publication PMC7613515, “Reading and erasing of the phosphonium analogue of trimethyllysine by epigenetic proteins” (Communications Chemistry, 2022)
Entries after “also recorded” stand apart in the source; their conditions may differ.

How the values were obtained:
BPTFPHD (L2583–N2751) = target: T1, BPTFPHD (L2583–N2751) (Homo sapiens, UniProt Q12830); experiment: ITC, association of histone H3 peptides with BPTFPHD; format: binding
T1 construct: BPTFPHD (L2583–N2751); made in house; host or cells: E. coli
Method: Isothermal titration calorimetric (ITC) analyses were used to determine the dissociation constant (Kd), the Gibbs free energy of binding (ΔG°), the enthalpy of binding (ΔH°), and the entropy of binding (ΔS°).
ITC studies followed a reported procedure[26]. The buffer used corresponded to that used in the final protein purification step. Briefly, TAF3PHD and KDM4ATTD: [Tris (50 mM) in water (pH 7.5)]; KDM5APHD3 and BTPFPHD: [Tris (50 mM), NaCl (20 mM) in water (pH 7.5)]; [Tris (25 mM), NaCl (50 mM), 1,4-dithiothreitol (1.0 mM) in water (pH 7.5)]. Experiments were conducted using ITC200 automated (GE Healthcare Life Sciences, USA) instrument at 25 °C. Histone peptide titrations were performed with the same reader batches. Solutions of the reader in buffer (25–40 µM) and of the histone H3 peptide (350–600 µM) in buffer were prepared. The prepared solutions were plated into a 96-well plate and inserted into the instrument for analysis. Experiments were performed according to manufacturer’s default settings: Plate pre-rinse syringe clean. A total of 19 injections were performed; each experiment was repeated 3–5 times. Heats of dilution for histone peptides determined in control experiments were subtracted from the titration binding data.

KDM4EJmjC (M1–Q337) [1] = target: T2, KDM4EJmjC (M1–Q337) (Homo sapiens, UniProt B2RXH2); experiment: LC-MS demethylation assay, KDM4EJmjC; format: biochemical; details: LC-MS time-course, KDM4EJmjC 0.5 µM, peptide 5.0 µM, 22 °C
T2 construct: We chose human KDM4EJmjC (M1–Q337); made in house
T2 sequence (B2RXH2 1-337): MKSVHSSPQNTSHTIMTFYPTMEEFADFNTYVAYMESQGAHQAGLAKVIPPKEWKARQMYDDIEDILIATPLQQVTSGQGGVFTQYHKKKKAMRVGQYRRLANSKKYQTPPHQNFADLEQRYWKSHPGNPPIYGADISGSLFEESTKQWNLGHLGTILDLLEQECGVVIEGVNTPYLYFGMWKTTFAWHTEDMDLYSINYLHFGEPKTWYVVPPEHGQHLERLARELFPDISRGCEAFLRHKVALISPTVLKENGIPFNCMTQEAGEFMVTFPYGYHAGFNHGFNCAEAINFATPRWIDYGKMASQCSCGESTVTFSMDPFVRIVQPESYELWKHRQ
Method: KDM4EJmjC demethylation studies of H3_1-15K9me3 or H3_1-15KP9me3 incubations using LC-MS were conducted as reported[31], using Agilent RapidFire 365 and Agilent QTOF 6530 machines. In brief, samples were aspirated under vacuum (~50 µL), passed through a loop (10 µL, 400 ms) and wash on a SPE cartridge A (C4) using solvent A (1.5 mL·min^−1, 4500 ms). Peptides were eluted using solvent B (1.25 mL·min^−1, 4500 ms) and directed to the MS for measurements. The cartridge was equilibrated for the next sample (1.25 mL·min^−1, 500 ms) and needle was cleaned with an organic wash solution. Between each sample, an alternating inorganic, organic and inorganic washes were performed to avoid any potential carry over on the SPE cartridge from previous sample. Solvent A: formic acid (0.1%) in water; Solvent B: formic acid (0.1%), acetonitrile (85%) in water; Inorganic wash: water; Organic wash: acetonitrile. Demethylation reactions were conducted in a temperature-controlled room (22 °C) and the MS machine Real-time monitoring mode. A solution [Peptide (6.0 µM), sodium L-ascorbate (600 µM), (NH4)2Fe(II)(SO4)2 (60 µM), disodium 2OG salt (120 µM) in buffer] […] (100 µL) was added and samples from the solution were taken every 2–2.5 min and measured. Note that the time was recorded between the addition and the first aspiration of the enzymatic reaction mixture [Peptide and Enzyme solution mixture]. […]

KDM3AJmjC (T515–S1317) = experiment: MALDI-TOF demethylation assay, KDM3AJmjC; format: biochemical; details: 1 hr
Excerpt: (§1) To investigate whether H3KP9me3 can be demethylated by other human KDM4 subfamily members, recombinant KDM4AJmjC (M1–L359) and KDM4DJmjC (M1–L358) were produced in E. coli following an adaption of literature procedures[38],[39]. […] To test the ability of KDM3 and KDM7 subfamily representatives to demethylate H3KP9me2 or H3KP9me3, KDM3AJmjC (T515–S1317) and KDM7BJmjC (M37–N483) were produced using baculovirus/sf9 and E. coli expression systems, respectively[40],[41]. The synthesis of a histone H3 mimic peptide H3KP9me2 substrate is challenging as the tri-alkylated phosphine group is susceptible to oxidation during synthesis of the protected amino acid and during SPPS requiring oxygen-free conditions. Thus, to investigate if KDM3AJmjC or KDM7BJmjC can catalyse demethylation of H3KP9me2, an appropriate H3KP9me2 substrate was prepared in situ from H3KP9me3 using KDM4EJmjC (2.0 µM), in the presence of KDM3AJmjC (2.0 µM) or KDM7BJmjC (2.0 µM).
(§2) A Bruker Daltonics MALDI-TOF/TOF AutoflexSpeed machine and Bruker MTP 384 target plates (polished steel BC, Part: 8280781) were used. The machine was controlled using Flex control (v. 3.4 build 135.10) and Compass for flex series (v. 1.4) software. Measurements were in the positive ion mode with the reflectron mode enabled. […] Samples were then analysed by MALDI-TOF. […]

KDM4EJmjC (M1–Q337) [2] = target: T2, KDM4EJmjC (M1–Q337); experiment: FDH coupled demethylation assay (formaldehyde release), KDM4EJmjC; format: biochemical; details: KDM4EJmjC 0–10 µM, H3KP9me3 10 µM; n = 3 or 4
Method: To test whether formaldehyde is generated by H3KP9me3 demethylation, a formaldehyde dehydrogenase (FDH) coupled assay was employed (Supplementary Fig. 19a)[34],[37]. […]
measurement of the formation of NADH. a FDH enzyme coupled to KDM4E JmjC demethylation assay measuring the levels of […]
(0–50 µM). c Michaelis-Menten analysis. Standard conditions: FDH (1.0 µM), Asc (1.0 mM), Fe(II) (50 µM), 2OG (200 µM) and NAD+ (250 µM). Errors are standard deviations of the mean (n = 2 or 3).
(1 picture or pasted object on this page, not shown here)
Supplementary Fig. 20 FDH activity assay of KDM4E JmjC (0–10 µM) catalysed demethylation of H3K P9me 3 (10 µM) […]
Standard conditions: FDH (1.0 µM), Ascorbate (1.0 mM), Fe(II) (50 µM), 2OG (200 µM) and NAD + (250 µM). Errors are standard deviations of the mean (n = 3 or 4).

KDM4AJmjC (M1–L359) = experiment: MALDI-TOF demethylation assay, KDM4AJmjC; format: biochemical, human; details: KDM4AJmjC 2.4 µM, peptide 5.0 µM, 1 hr, duplicates
Excerpt: as §1, §2

[3] = 25 °C, H3 1-10 peptide, Tris (50 mM), NaCl (20 mM), pH 7.5, from 3 to 5 experiments, ± SD

Row | Compound | -TΔS° (BPTFPHD (L2583–N2751); [3]) [kcal/mol] | ΔG° (BPTFPHD (L2583–N2751); [3]) [kcal/mol] | ΔH° (BPTFPHD (L2583–N2751); [3]) [kcal/mol] | fold stronger binding (ΔKd), H3KP4me3 versus H3K4me3 (BPTFPHD (L2583–N2751); BPTFPHD) | demethylation (KDM4EJmjC (M1–Q337) [1]) | demethylation in combination with KDM4EJmjC (KDM3AJmjC (T515–S1317); KDM3AJmjC 2.0 µM plus KDM4EJmjC 2.0 µM, peptide 5.0 µM) | demethylation (KDM3AJmjC (T515–S1317); KDM3AJmjC 2.0 µM, H3KP9me2 prepared in situ with KDM4EJmjC) | formaldehyde release (KDM4EJmjC (M1–Q337) [2]) | demethylation (KDM4AJmjC (M1–L359))
1 | C[C@H](N)C(=O)N[C@@H](CCCNC(=N)N)C(=O)N[C@H](C(=O)N[C@@H](CCCC[P+](C)(C)C)C(=O)N[C@@H](CCC(N)=O)C(=O)N[C@H](C(=O)N[C@@H](C)C(=O)N[C@@H](CCCNC(=N)N)C(=O)N[C@@H](CCCCN)C(=O)N[C@@H](CO)C(N)=O)[C@@H](C)O)[C@@H](C)O [H3KP4me3] | 4.7 ± 0.1 | -9.1 ± 0.1 | -13.8 ± 0.1 | ~ 7 fold |  |  |  |  | 
2 | ARTKQTAR(KPme3)STGGKA [H3KP9me3, histone H3 residues 1–15 with trimethylphosphonium lysine analogue at position 9] |  |  |  |  | both are substrates | produced H3KP9me2 (due to KDM4EJmjC catalysis), but did not result in masses consistent with H3KP9me1 or H3KP9 | do not catalyse demethylation of H3K9me3 (as anticipated) or H3KP9me3 | in an enzyme dependent manner that releases formaldehyde; also recorded: time-dependent increase in formaldehyde | substantial turnover to H3KP9me2
